Where two headings read alike, the source gives them in different places.
What was measured:
human integrin α9β1 = biological target: T1, human integrin α9β1 (Homo sapiens, UniProt P05556+Q13797); assay: Saturation binding to α9β1 over-expressing LN18 cells (flow cytometry); conditions: for Kd: α9β1 LN18 cells, read-out: Kd (dissociation constant), α9β1
T1 construct: expressed in transfected cells; host or cells: human glioblastoma LN18 (ATCC CRL-2610), retrovirally transduced; α4 silenced with pSM2c-shITGA4
Experimental: Stable LN18 cells ((ATCC number: CRL-2610) over-expressing integrin α4β1 (LN18 α4β1) or α9β1 (LN18 α9β1)) were generated by retroviral transduction using the pMSCV-hITGA4-IRES-hITGB1 and pMSCV-hITGA9-IRES-hITGB1 vectors as previously described in J Grassinger, et al Blood, 2009, 114, 49-59 and were maintained in DMEM supplemented with 2 mM […] in 10% FBS. Transduced cells were selected by two rounds of FACS using 2.5 μg ml^−1 PE-Cy5-conjugated mouse-anti-human α4 antibody (BD Bioscience) or 20 μg ml^−1 of mouse-anti-human α9β1 antibody (Millipore) in PBS-2% FBS, followed by 0.5 μg ml^−1 of PE-conjugated goat-anti-mouse IgG (BD Bio-science). Silencing of α4 expression in LN18 and LN18 α9β1 cells was performed as described above using pSM2c-shITGA4 (Open Biosystems). α4-silenced LN18 cells (control cell line; LN18 SiA4) and LN18 α9β1 (LN18 α9β1SiA4) were negatively selected for α4 expression using FACS.
The cells were incubated at 37° C. for 60 min, washed once with TBS-2% FBS, dry pelleted and resuspended in the relevant binding buffer for flow cytometric analysis. Mean channel fluorescence was plotted against concentration and fitted to a one-site saturation ligand binding curve using GraphPad Prism 6. The dissociation constant, Kd was determined from the curves.

[1] = tested on: WBC, LSK and LSKSLAM in PB; assay: Mobilization of HSC and progenitors into peripheral blood; assay type: in vivo, mouse; conditions: R-BC154, s.c., 15 and 30 mins post-injection
Experimental: For mobilization experiments, all mice received subcutaneous injections at 100 μl/10 gm body weight and PB was harvested by throat bleed using EDTA coated syringes.

[2] = tested on: bone marrow progenitor cells (LSK) and HSC (LSKSLAM); assay: In vivo bone marrow binding assay; set-up: species or system mouse
Experimental: After 5 min, bone marrow cells were isolated as previously described in D. N. Haylock et al Stem Cells, 2007, 25, 1062-1069 and J. Grassinger, et al Cytokine, 2012, 58, 218-225. Briefly, one femur, tibia and iliac crest were excised and cleaned of muscle. After removing the epi- and metaphyseal regions, bones were flushed with PBS-2% FBS to obtain whole bone marrow, which were washed with PBS-2% FBS and then immunolabelled for flow cytometry. […] For staining progenitor cells (LSK; Lineage−Sca-1^+c-kit^+) and HSC (LSKSLAM; LSKCD150+CD48−), cells were labelled with a lineage cocktail (CD3, Ter-119, Gr-1, Mac-1, B220; all antibodies APC-Cy7 conjugated), anti-Sca-1-PB, anti-c-kit-AF647, anti-CD48-FITC and anti-CD150-BV650.
Cells were washed with cold PBS (2% F BS) and then immunolabelled as described in “Antibody Cocktails” prior to flow cytometric analysis.
Sorted cells were imaged using an Olympus BX51 microscope.

T1 sequence (Q13797 30-1035): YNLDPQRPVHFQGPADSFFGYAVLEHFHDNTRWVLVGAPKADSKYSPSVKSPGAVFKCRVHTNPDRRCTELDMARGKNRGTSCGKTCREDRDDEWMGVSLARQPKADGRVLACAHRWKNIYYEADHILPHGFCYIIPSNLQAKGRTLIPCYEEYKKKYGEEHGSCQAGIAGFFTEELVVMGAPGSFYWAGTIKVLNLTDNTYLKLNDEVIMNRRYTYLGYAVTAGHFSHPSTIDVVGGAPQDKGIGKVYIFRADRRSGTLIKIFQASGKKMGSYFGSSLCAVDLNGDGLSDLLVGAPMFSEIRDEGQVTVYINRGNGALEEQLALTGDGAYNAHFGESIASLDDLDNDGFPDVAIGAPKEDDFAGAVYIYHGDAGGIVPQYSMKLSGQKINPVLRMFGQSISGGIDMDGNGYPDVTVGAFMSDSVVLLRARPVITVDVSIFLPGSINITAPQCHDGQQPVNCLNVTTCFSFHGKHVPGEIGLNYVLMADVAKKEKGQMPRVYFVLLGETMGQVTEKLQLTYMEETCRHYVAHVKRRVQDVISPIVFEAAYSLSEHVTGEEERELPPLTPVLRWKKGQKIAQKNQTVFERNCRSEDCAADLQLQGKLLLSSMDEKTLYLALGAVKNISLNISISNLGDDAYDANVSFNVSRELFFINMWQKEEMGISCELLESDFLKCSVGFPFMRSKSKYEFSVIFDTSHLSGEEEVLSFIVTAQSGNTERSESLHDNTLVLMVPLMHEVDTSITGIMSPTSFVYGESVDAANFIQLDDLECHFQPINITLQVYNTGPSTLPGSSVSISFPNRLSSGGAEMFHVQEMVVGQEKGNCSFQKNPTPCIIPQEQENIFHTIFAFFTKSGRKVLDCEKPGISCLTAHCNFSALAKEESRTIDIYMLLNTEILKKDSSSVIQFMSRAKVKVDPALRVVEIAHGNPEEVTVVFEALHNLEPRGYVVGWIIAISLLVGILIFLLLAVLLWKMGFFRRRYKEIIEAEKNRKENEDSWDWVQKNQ
T1 sequence (P05556 21-798): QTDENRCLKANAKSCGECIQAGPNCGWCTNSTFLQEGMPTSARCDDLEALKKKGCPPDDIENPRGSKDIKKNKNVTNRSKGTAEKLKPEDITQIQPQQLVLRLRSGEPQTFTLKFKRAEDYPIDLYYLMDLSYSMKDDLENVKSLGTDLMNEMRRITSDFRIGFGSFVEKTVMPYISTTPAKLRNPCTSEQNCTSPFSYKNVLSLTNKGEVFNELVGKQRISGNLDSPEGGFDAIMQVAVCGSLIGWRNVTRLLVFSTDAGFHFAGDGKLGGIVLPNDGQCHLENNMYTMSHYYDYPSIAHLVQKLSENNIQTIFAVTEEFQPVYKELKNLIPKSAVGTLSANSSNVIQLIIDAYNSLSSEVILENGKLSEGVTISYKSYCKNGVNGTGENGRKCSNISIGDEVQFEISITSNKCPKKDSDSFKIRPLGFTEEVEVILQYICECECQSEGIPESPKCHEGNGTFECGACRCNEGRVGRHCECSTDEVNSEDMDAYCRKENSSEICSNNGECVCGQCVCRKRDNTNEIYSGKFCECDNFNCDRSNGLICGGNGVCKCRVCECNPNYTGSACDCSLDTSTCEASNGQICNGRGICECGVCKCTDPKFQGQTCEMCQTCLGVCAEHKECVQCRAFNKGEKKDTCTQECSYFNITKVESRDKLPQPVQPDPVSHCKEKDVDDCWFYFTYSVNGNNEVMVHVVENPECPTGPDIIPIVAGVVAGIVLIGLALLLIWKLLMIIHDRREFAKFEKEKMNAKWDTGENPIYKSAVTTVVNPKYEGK

## CCN(CC)c1ccc2c(-c3ccc(S(=O)(=O)NCc4cn(C5CC(C(=O)NC(Cc6ccc(OC(=O)N7CCCC7)cc6)C(=O)O)N(S(=O)(=O)c6ccccc6)C5)nn4)cc3S(=O)(=O)[O-])c3ccc(=[N+](CC)CC)cc-3oc2c1 (stereo not drawn) [R-BC154]
Human integrin α9β1; 1 mM Ca2+/Mg2+
  Kd: 12.7 nM
Human integrin α9β1; 1 mM Mn2+
  Kd: 14.4 nM
Human integrin α9β1; Ca2+/Mg2+ conditions
  greater affinity for α9β1 than α4β1: 3 fold
  reduction in binding affinity to α9β1 compared to compound 22: 1.5 fold
Human integrin α9β1; TBS buffer only, LN18 α9β1 cells (FIG. 4)
  integrin binding in the absence of cations: no integrin binding was observed
[1]
  number of WBC, LSK or LSKSLAM in PB: not found to give significant increases
[2]; 10 mg kg−1 intravenously, C57 mice, vs un-injected mice
  in vivo labelling of BM progenitor cells (LSK) and HSC (LSKSLAM): Increased cell-associated fluorescence
[2]; 30 mins post-s.c.
  binding to BM LSK after s.c. treatment: persistent binding
[2]; conditional KO mice injected with R-BC154
  in vivo binding on α4−/−/α9−/− LSK cells: No binding
[2]; i.v. administration, C57Bl/6 mice
  proportion of R-BC154hi LSK and LSKSLAM cells, endosteal vs central BM: greater proportion of R-BC154^hi cells
[2]; i.v., mice
  clearance following i.v. administration: < 5 min
[2]; s.c. administration
  binding on LSK in the PB compared to BM: Minimal binding

— patent US20170348375A1, “DISLODGEMENT AND RELEASE OF HSC FROM THE BONE MARROW STEM CELL NICHE USING ALPHA9 INTEGRIN ANTAGONISTS” (COMMONWEALTH SCIENTIFIC AND INDUSTRIAL RESEARCH ORGANISATION, priority 2014, published 2017)
